From PMC8882856, “The affinity and selectivity of α‐adrenoceptor antagonists, antidepressants and antipsychotics for the human α2A, α2B, and α2C‐adrenoceptors and comparison with human α1 and β‐adrenoceptors” (Pharmacology Research & Perspectives, 2022)
pIC50, pKd: −log10 of the molar value. “Also recorded” adds a separate entry of the source. Where two headings read alike, the source gives them in different places. One block for each compound: values may come before it.

Key:
human α2A‐adrenoceptor [1] = molecular target: T1, human α2A‐adrenoceptor (Homo sapiens, UniProt P08913); experiment: ^3H‐rauwolscine whole cell competition binding, CHO‐α2A cells
T1 sequence (P08913 1-465): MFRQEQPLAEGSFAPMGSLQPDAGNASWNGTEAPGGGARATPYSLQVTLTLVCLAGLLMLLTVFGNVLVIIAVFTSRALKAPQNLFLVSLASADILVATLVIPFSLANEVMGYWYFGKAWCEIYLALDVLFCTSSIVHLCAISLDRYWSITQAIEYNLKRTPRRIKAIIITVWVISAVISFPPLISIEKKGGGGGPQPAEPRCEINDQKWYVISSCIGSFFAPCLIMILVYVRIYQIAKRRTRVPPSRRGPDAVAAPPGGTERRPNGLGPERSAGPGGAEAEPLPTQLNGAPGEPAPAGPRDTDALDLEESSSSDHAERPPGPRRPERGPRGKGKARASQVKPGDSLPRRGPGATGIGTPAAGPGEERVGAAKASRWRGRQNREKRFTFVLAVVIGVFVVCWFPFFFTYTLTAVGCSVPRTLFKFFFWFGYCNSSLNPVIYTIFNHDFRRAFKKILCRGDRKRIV

human β2‐adrenoceptor = human β2‐adrenoceptor (Homo sapiens, UniProt P07550); format: binding
Chain of human β2‐adrenoceptor (P07550 whole entry): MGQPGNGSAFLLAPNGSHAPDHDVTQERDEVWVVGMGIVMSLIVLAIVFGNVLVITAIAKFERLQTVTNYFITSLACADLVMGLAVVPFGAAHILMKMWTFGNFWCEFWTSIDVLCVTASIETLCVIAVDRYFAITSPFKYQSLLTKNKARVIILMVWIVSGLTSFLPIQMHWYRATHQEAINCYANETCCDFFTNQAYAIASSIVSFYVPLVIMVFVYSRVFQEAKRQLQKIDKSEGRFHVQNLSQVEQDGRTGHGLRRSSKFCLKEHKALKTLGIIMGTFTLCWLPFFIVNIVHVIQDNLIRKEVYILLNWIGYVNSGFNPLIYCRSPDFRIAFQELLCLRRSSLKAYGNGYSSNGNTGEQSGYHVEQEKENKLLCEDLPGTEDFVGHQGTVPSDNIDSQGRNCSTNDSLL

human α2C‐adrenoceptor = molecular target: T2, human α2C‐adrenoceptor (Homo sapiens, UniProt P18825); experiment: ^3H‐rauwolscine whole cell competition binding, CHO‐α2C cells; conditions: for Selectivity ratio α2A vs α2C (higher affinity for α2C) / Selectivity ratio α2B vs α2C (higher affinity for α2C): ratio of KD values
T2 sequence (P18825 1-462): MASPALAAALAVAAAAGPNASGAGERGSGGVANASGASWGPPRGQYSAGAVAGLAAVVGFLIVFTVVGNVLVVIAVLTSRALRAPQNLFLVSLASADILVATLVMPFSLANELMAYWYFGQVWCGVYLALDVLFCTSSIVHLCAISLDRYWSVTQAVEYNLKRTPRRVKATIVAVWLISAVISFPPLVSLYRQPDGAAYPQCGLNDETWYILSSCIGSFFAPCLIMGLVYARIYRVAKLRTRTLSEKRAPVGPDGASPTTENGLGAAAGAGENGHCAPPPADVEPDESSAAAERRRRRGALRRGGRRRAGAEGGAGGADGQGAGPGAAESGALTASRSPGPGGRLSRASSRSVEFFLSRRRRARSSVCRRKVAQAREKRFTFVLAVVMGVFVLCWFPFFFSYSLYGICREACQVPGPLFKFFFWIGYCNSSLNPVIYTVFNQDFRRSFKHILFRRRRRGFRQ

human β1‐adrenoceptor = human β1‐adrenoceptor (Homo sapiens, UniProt P08588)
Chain of human β1‐adrenoceptor (P08588 whole entry): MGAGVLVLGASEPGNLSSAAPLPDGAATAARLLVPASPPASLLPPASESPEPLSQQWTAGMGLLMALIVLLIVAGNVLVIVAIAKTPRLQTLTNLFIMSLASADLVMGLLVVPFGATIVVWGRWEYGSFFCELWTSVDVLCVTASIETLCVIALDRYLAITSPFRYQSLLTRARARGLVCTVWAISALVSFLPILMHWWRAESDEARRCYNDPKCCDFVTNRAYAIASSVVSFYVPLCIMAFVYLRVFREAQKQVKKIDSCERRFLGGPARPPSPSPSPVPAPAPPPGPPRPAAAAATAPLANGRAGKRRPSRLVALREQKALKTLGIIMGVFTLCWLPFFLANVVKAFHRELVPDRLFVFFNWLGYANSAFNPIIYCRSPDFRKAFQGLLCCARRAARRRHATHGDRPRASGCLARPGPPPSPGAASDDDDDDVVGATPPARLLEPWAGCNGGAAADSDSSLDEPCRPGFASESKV

human α2B‐adrenoceptor = molecular target: T3, human α2B‐adrenoceptor (Homo sapiens, UniProt P18089); experiment: ^3H‐rauwolscine whole cell competition binding, CHO‐α2B cells
T3 sequence (P18089 1-450): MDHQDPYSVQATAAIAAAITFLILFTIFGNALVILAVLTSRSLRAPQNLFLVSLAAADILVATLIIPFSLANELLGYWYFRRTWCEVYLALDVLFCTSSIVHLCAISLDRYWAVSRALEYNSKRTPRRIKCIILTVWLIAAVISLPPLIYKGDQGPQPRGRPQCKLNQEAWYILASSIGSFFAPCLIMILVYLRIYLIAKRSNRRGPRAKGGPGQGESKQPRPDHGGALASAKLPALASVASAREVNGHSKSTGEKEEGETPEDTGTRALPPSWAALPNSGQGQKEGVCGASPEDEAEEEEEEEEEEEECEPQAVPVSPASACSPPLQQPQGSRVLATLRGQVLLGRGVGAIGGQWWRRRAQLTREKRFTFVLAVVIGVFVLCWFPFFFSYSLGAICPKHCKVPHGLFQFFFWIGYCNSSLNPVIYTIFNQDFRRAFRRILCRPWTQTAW

human α2A‐adrenoceptor [2] = molecular target: T1, human α2A‐adrenoceptor; experiment: cell-based
[3] = ^3H‐CGP12177 whole cell binding, log values, mean ± s.e.mean, ^app = apparent KD, 'no binding to' = log top concentration
[4] = given as log KD (negative values), 3H-CGP12177 whole cell binding, CHO cells, mean ± s.e.mean
[5] = proportion of site 1 in two-site fit
[6] = two-component inhibition, proportion of higher affinity site

Log KD α2A (^app = apparent affinity) (human α2A‐adrenoceptor [1]; log KD, negative sign, apparent KD from extrapolated curve, maximum concentration inhibited most but not all specific binding): -4.86 ± 0.07^app
SMILES: CC(C)OC(=O)c1cc2c(OCC(O)CNC(C)(C)C)cccc2[nH]1 (stereo not shown) [SDZ 21009]

SMILES: CN1[C@H]2C[C@H](OC(=O)[C@H](CO)c3ccccc3)C[C@@H]1[C@@H](O)C2 [anisodamine]
IC50 (log) α2A, IC50>top concentration used (human α2A‐adrenoceptor [1]): IC50>−3
Log KD β2 (human β2‐adrenoceptor): no binding to −3; also recorded: no binding to -3
Log KD α2C (human α2C‐adrenoceptor): −3.56 ± 0.07^app
Log KD β1 (human β1‐adrenoceptor): no binding to −3; also recorded: no binding to -3
IC50 (log) α2B, IC50>top concentration used (human α2B‐adrenoceptor): IC50>−3

SMILES: CCC1(c2cnc[nH]2)Cc2ccccc2C1 [atipamezole]
pKd (human α2A‐adrenoceptor [1]): 8.50
Log KD β2 (human β2‐adrenoceptor; [3]): No binding to −4.5
Log KD β2 (human β2‐adrenoceptor; [4]): No binding to -4.5
Log KD β1 (human β1‐adrenoceptor; [3]): No binding to −4.5
Log KD β1 (human β1‐adrenoceptor; [4]): No binding to -4.5

SMILES: COc1cccc(OC)c1OCCNCC1CSc2ccccc2O1 (stereo not shown) [benoxathian]
Log KD α2A (human α2A‐adrenoceptor [1]): −7.17 ± 0.02
Selectivity ratio α2A vs α2B (higher affinity for α2A) (human α2A‐adrenoceptor [1]; ratio of KD values): 16.2
Log KD β2 (human β2‐adrenoceptor; [3]): −5.08 ± 0.06
Log KD α2C (human α2C‐adrenoceptor): −7.75 ± 0.03
Selectivity ratio α2A vs α2C (higher affinity for α2C) (human α2C‐adrenoceptor): 3.8
Selectivity ratio α2B vs α2C (higher affinity for α2C) (human α2C‐adrenoceptor): 61.7
Log KD β1 (human β1‐adrenoceptor; [3]): −4.55 ± 0.03^app
Log KD α2B (human α2B‐adrenoceptor): −5.96 ± 0.06

pIC50 (human α2A‐adrenoceptor [1]): < 4.00
Log KD β2 (human β2‐adrenoceptor; [3]): No binding to −4
Log KD β2 (human β2‐adrenoceptor; [4]): No binding to -4
pIC50 (human α2C‐adrenoceptor): < 4.00
Log KD β1 (human β1‐adrenoceptor; [3]): No binding to −4
Log KD β1 (human β1‐adrenoceptor; [4]): No binding to -4
SMILES: CN(C)CCCC1(c2ccc(F)cc2)OCc2cc(C#N)ccc21 (stereo not shown) [citalopram]

pKd (human α2A‐adrenoceptor [2]): 5.71
SMILES: CN(C)CCCN1c2ccccc2CCc2ccc(Cl)cc21 [clomipramine]

SMILES: CC(C)(C)NCC(O)COc1cccc2[nH]c(C#N)cc12 (stereo not shown) [cyanopindolol]
pKd (human α2A‐adrenoceptor [1]): 5.56
pKd (human α2C‐adrenoceptor): 6.15
pKd (human α2B‐adrenoceptor): 4.82

SMILES: CCC1(C2=NCCN2)Cc2ccccc2O1 (stereo not shown) [eforaxan]
Log KD β2 (human β2‐adrenoceptor; [3]): no binding to −3
Log KD β2 (human β2‐adrenoceptor; [4]): no binding to -3
Log KD β1 (human β1‐adrenoceptor; [3]): no binding to −3
Log KD β1 (human β1‐adrenoceptor; [4]): no binding to -3

SMILES: CNCCCN1c2ccccc2CCc2ccc(Cl)cc21 [norclomipramine]
Log KD α2A (human α2A‐adrenoceptor [1]): −5.29 ± 0.09^app
IC50 (log) β2, IC50>top concentration used (human β2‐adrenoceptor; ^3H‐CGP12177, log value): IC50>−4.5
Log KD α2C (human α2C‐adrenoceptor): −5.80 ± 0.07^app
Selectivity ratio α2A vs α2C (higher affinity for α2C) (human α2C‐adrenoceptor): 3.2
Selectivity ratio α2B vs α2C (higher affinity for α2C) (human α2C‐adrenoceptor): 1.1
IC50 (log) β1, IC50>top concentration used (human β1‐adrenoceptor; ^3H‐CGP12177, log value): IC50>−4.5
Log KD α2B (human α2B‐adrenoceptor): −5.74 ± 0.04^app
Selectivity ratio α2A vs α2B (higher affinity for α2B) (human α2B‐adrenoceptor; ratio of KD values): 2.8

SMILES: CC(COc1ccccc1)N(CCCl)Cc1ccccc1 (stereo not shown) [phenoxybenzamine]
% site 1 α2C (percentage through first component) (human α2C‐adrenoceptor): −6.41 ± 0.11 −4.71 ± 0.13 74.1 ± 4.1% site 1
% site 1, α2C (human α2C‐adrenoceptor; [5]): 74.1 ± 4.1%
% site 1, α2C (human α2C‐adrenoceptor; [6]): 74.1 ± 4.1%
% site 1 α2B (percentage through first component) (human α2B‐adrenoceptor): −6.44 ± 0.11 −4.89 ± 0.08 51.4 ± 3.3% site 1
% site 1, α2B (human α2B‐adrenoceptor; [5]): 51.4 ± 3.3%
% site 1, α2B (human α2B‐adrenoceptor; [6]): 51.4 ± 3.3%

pKd (human α2A‐adrenoceptor [2]): 5.00
SMILES: CNCCCC1c2ccccc2C=Cc2ccccc21 [protriptyline]

Log KD β2 (human β2‐adrenoceptor; [3]): No binding to −4
Log KD β2 (human β2‐adrenoceptor; [4]): No binding to -4
Log KD β1 (human β1‐adrenoceptor; [3]): No binding to −4
Log KD β1 (human β1‐adrenoceptor; [4]): No binding to -4
SMILES: O=C1Cc2cc(CCN3CCN(c4nsc5ccccc45)CC3)c(Cl)cc2N1 [ziprasidone]
